In the test the target is human PDE10A2 (Homo sapiens (Human), UniProt Q9Y233). Nature of the test: PDE10 fluorescence polarization (IMAP FP) inhibition assay. In kind it is biochemical. The conditions noted are these: apparent inhibition constant, FAM-labeled cAMP substrate 50 nM, room temperature. The essentials:
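Cytoplasmic lysate of AD293 cells transiently expressing human PDE10A2, enzyme preincubated 60 min at room temperature with compounds (1% DMSO), then 50 nM FAM-cAMP added for 60 min. Buffer 10 mM Tris HCl pH 7.2, 10 mM MgCl2, 1 mM DTT; IMAP binding reagent stop, FP read after ≥1 h.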
Background: Fluorescence polarisation rises when a labelled molecule tumbles more slowly, as on binding a larger partner.

In general, pKi refers to the negative decadic logarithm of the Ki, by convention in mol/L.

pKi: −log10 of the molar value.

Chain of human PDE10A2 (Q9Y233 267-1055): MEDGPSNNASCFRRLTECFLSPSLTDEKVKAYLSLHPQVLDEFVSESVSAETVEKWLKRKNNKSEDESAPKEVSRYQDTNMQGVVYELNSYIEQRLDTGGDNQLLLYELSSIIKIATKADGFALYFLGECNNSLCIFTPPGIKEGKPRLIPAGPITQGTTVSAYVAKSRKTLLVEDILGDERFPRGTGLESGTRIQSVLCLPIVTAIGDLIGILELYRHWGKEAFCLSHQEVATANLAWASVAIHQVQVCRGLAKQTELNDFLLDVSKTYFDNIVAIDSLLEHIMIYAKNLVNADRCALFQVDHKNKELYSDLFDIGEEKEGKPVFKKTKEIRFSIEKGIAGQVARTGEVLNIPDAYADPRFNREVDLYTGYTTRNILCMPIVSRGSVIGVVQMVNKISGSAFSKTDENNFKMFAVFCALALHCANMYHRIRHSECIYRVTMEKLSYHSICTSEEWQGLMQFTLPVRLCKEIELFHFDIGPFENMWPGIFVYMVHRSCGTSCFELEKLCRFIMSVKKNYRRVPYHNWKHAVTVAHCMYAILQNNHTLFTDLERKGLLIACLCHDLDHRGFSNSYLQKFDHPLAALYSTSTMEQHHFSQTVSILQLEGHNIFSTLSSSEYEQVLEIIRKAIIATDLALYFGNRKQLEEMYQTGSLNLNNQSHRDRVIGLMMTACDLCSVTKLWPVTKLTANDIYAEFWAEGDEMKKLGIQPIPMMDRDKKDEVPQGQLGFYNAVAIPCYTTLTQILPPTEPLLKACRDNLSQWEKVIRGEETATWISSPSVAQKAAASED

With `Cc1nc(N2CC(c3nc4ccccc4n3C)C2)cc(-n2nc(C)nc2-c2ccccc2Cl)n1` [Example 50, 2-(1-(6-(5-(2-chlorophenyl)-3-methyl-1H-1,2,4-triazol-1-yl)-2-methylpyrimidin-4-yl)azetidin-3-yl)-1-methyl-1H-benzo[d]imidazole], the pKi was 9.46.
Then `COc1nc(N2CC(c3nc4ccccc4n3C)C2)cc(-n2ncc(C)n2)n1` [Example 34, 2-{1-[2-methoxy-6-(4-methyl-2H-1,2,3-triazol-2-yl)pyrimidin-4-yl]azetidin-3-yl}-1-methyl-1H-benzimidazole], with 8.85; and `Cc1nc(N2CC(c3nc4ccccc4n3C)C2)cc(-n2nc(C)c(C)c2C)n1` [Example 9, 1-methyl-2-(1-(2-methyl-6-(3,4,5-trimethyl-1H-pyrazol-1-yl)pyrimidin-4-yl)azetidin-3-yl)-1H-benzo[d]imidazole], with 9.03; and `Cc1nc(C)n(-c2cc(N3CC(c4nc5ccccc5n4C)C3)nc(CC#N)n2)n1` [Example 25, 2-(4-(3,5-dimethyl-1H-1,2,4-triazol-1-yl)-6-(3-(1-methyl-1H-benzo[d]imidazol-2-yl)azetidin-1-yl)pyrimidin-2-yl)acetonitrile], with 8.89.
`COC(=O)c1nc(N2CC(c3nc4ccccc4n3C)C2)cc(-n2nc(C)nc2C)n1` [Example 24, methyl 4-(3,5-dimethyl-1H-1,2,4-triazol-1-yl)-6-(3-(1-methyl-1H-benzo[d]imidazol-2-yl)azetidin-1-yl)pyrimidine-2-carboxylate]: the pKi is 8.74.
Then `Cc1nc(-c2ccccc2F)cc(N2CC(c3nc4ccccc4n3C)C2)n1` [Example 90, 2-(1-(6-(2-fluorophenyl)-2-methylpyrimidin-4-yl)azetidin-3-yl)-1-methyl-1H-benzo[d]imidazole], with 7.82.
Then `Cc1ccc2nc(C3CN(c4cc(-n5nc(C)nc5C)nc(C)n4)C3)[nH]c2c1` [Example 111, 2-(1-(6-(3,5-dimethyl-1H-1,2,4-triazol-1-yl)-2-methylpyrimidin-4-yl)azetidin-3-yl)-6-methyl-1H-benzo[d]imidazole], with 7.41; and `CCCc1nc(C)nn1-c1cc(N2CC(c3nc4ccccc4n3C)C2)nc(C)n1` [Example 38, 1-methyl-2-(1-(2-methyl-6-(3-methyl-5-propyl-1H-1,2,4-triazol-1-yl)pyrimidin-4-yl)azetidin-3-yl)-1H-benzo[d]imidazole], with 9.39.
Next, `Cc1nc(N2CC(c3nc4cccc(F)c4n3C)C2)cc(-n2nc(C)nc2C)n1` [Example 123, 2-(1-(6-(3,5-dimethyl-1H-1,2,4-triazol-1-yl)-2-methylpyrimidin-4-yl)azetidin-3-yl)-7-fluoro-1-methyl-1H-benzo[d]imidazole]: 8.15.
For the compound `Cc1nc(N2CC(c3nc4cccc(C)c4[nH]3)C2)cc(-n2nc(C)nc2C)n1` [Example 110, 2-(1-(6-(3,5-dimethyl-1H-1,2,4-triazol-1-yl)-2-methylpyrimidin-4-yl)azetidin-3-yl)-7-methyl-1H-benzo[d]imidazole], the negative-log Ki (pKi) was 7.77.

(Values after US9365562B2, “1,3 substituted azetidine PDE10 inhibitors” (Merck Sharp & Dohme Corp., priority 2011, dated 2016).)
